The record followed here is patent US11884707B2, “Compositions for detection, inhibition and imaging of indoleamine 2, 3-dioxygenase 1 (IDO1) and methods of making and using same” (Regeneron Pharmaceuticals, Inc., priority 2016, dated 2024).

The target in the assay is T1, His-tagged IDO1 human recombinant protein (Homo sapiens, UniProt P14902).
T1 construct: purchased BPS Biosciences 71182
In words: IDO1 ELISA (affinity assay), sandwich ELISA with immobilized biotinylated macrocycle. The format is binding. The conditions noted are these: for EC50: biotin-PEG3-modified macrocycle immobilized on NeutrAvidin plate (2 μM coating), His-tagged human IDO1 200 to 0 nM. The protocol:
A black 96-well NeutrAvidin Coated High Binding Capacity plate (15510, Pierce) was coated with 2 μM biotinylated macrocyclic peptide ligand in TBS (25 mM Tris-HCl, 150 mM NaCl, pH 7.6) for 2 h at room temperature. The plate was aspirated and then washed with Wash Buffer (0.05% (v/v) Tween-20 in PBS, 6×). His-tagged IDO1 human recombinant protein (71182, BPS Biosciences) was serially diluted in Wash Buffer (from 200 to 0 nM) and incubated in the designated microwells for 1 h at room temperature. Microwells were aspirated and subsequently washed with Wash Buffer (11×). To detect the bound IDO1 protein, Alkaline Phosphatase (AP)-conjugated Anti-6×His Tag® antibody [HIS-1] (ab49746, Abcam) was prepared at 1:10,000 dilution and added to the microwells for 1 h at room temperature. The plate was aspirated and washed with Wash Buffer (5×). AttoPhos® AP Fluorescent Substrate System (S1000, Promega) was employed to develop the microwells. Using an excitation wavelength of 430 nm, fluorescent emission at 535 nm was recorded by Beckman Coulter DTX880 photometer. Titration curves were fit using a four-parameter regression curve fitting program to determine EC50 values.
The binding affinities of biotin-PEG3-modified macrocyclic peptide ligands were tested in an ELISA format. For these assays, a dilution series of His-tagged IDO1 human recombinant protein was captured using the macrocyclic peptide ligands immobilized on a NeutrAvidin-coated plate. […] The sequences of the peptide ligands are listed in Table 1, where D-amino acids are denoted in lowercase, Me-Trp=1-methyl-L-tryptophan, and F-Phe=4-fluoro-L-phenylalanine.
The D-alanine substituted, biotin-PEG3-modified macrocycles were tested in the IDO1 ELISA (Affinity assay). For these assays, a dilution series of His-tagged IDO1 human recombinant protein was captured using macrocycles immobilized on a NeutrAvidin-coated plate.

[1] abbreviates: alanine scan and 3-mer/4-mer variants, biotin-PEG3-modified, FIGS. 15-18.

Where a SMILES comes first, the peptide text is derived from it. Bridges are numbered along the chain shown (N, C = ends). Triazole bridges read from a SMILES are 1,4-linked. [ ]: non-standard residue; d: D form. The star is where a group is joined. Biotinyl(3aR,4R,6aS) = O=C1N[C@@H]2[C@@H](CS[C@@H]2CCCCC(=O)*)N1; Biotin = O=C1N[C@H]2[C@H](CS[C@H]2CCCCC(=O)*)N1; Trp(1-Me) = Cn1cc(C[C@H](N)C(=O)O)c2ccccc21; Lys(N3) = [N-]=[N+]=NCCCC[C@H](N)C(=O)O; Phe(4-F) = N[C@@H](Cc1ccc(F)cc1)C(=O)O; AEEEA = NCCOCCOCCOCC(=O)O; Pra = C#CC[C@H](N)C(=O)O

For orientation: EC50 means the concentration needed to bring the measured effect to its halfway point.

T1 sequence (P14902 whole entry): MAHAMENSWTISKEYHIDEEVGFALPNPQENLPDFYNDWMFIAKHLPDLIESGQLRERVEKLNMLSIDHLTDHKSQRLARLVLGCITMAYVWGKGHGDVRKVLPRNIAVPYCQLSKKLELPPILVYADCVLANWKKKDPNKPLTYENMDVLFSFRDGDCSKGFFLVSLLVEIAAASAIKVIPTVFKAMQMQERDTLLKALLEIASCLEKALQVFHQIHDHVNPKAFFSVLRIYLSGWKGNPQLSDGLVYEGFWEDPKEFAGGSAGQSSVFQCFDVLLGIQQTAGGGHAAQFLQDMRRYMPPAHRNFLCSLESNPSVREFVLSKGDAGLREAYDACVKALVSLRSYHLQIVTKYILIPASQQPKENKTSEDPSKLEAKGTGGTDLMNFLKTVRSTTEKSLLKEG

As to `Cn1cc(C[C@@H]2NC(=O)[C@@H](Cc3ccccc3)NC(=O)[C@@H](CCCNC(=N)N)NC(=O)[C@@H](Cc3ccccc3)NC(=O)[C@@H](NC(=O)COCCOCCOCCNC(=O)CCCC[C@@H]3SC[C@@H]4NC(=O)N[C@@H]43)Cc3cn(nn3)CCCC[C@@H](C(N)=O)NC(=O)[C@@H](CO)NC2=O)c2ccccc21` [biotin-PEG3-Cy(frf(Me-Trp)s)] ({Biotin-AEEEA}-[Pra][dF][dR][dF][Trp(1-Me)][dS][Lys(N3)]-NH2; triazole 1-7), the EC50 was 0.02 µM.
As for `Cn1cc(C[C@@H]2NC(=O)[C@@H](CCCNC(=N)N)NC(=O)[C@@H](Cc3ccccc3)NC(=O)[C@@H](CO)NC(=O)[C@@H](CC(N)=O)NC(=O)[C@@H](NC(=O)COCCOCCOCCNC(=O)CCCC[C@@H]3SC[C@@H]4NC(=O)N[C@@H]43)Cc3cn(nn3)CCCC[C@@H](C(N)=O)NC2=O)c2ccccc21` [biotin-PEG3-Cy(nsfr(Me-Trp))] ({Biotin-AEEEA}-[Pra][dN][dS][dF][dR][Trp(1-Me)][Lys(N3)]-NH2; triazole 1-7), the concentration for a half-maximal effect (EC50) turned out to be 0.124 µM.
On to `CC(C)C[C@H]1NC(=O)[C@@H](Cc2ccc(O)cc2)NC(=O)[C@@H](Cc2ccccc2)NC(=O)[C@@H](Cc2ccccc2)NC(=O)[C@@H](CCCNC(=N)N)NC(=O)[C@@H](NC(=O)COCCOCCOCCNC(=O)CCCC[C@@H]2SC[C@@H]3NC(=O)N[C@@H]32)Cc2cn(nn2)CCCC[C@@H](C(N)=O)NC1=O` [biotin-PEG3-Cy(rffyl)] ({Biotin-AEEEA}-[Pra][dR][dF][dF][dY][dL][Lys(N3)]-NH2; triazole 1-7), for which the 50% effective concentration (EC50) is 0.125 µM.
The same measure, in the same setting: then `C[C@H]1NC(=O)[C@@H](CCCNC(=N)N)NC(=O)[C@@H](Cc2ccc(O)cc2)NC(=O)[C@@H](Cc2c[nH]c3ccccc23)NC(=O)[C@@H](NC(=O)COCCOCCOCCNC(=O)CCCC[C@@H]2SC[C@@H]3NC(=O)N[C@@H]32)Cc2cn(nn2)CCCC[C@@H](C(N)=O)NC(=O)[C@@H](Cc2ccc(O)cc2)NC1=O` [biotin-PEG3-Cy(wyray)] ({Biotin-AEEEA}-[Pra][dW][dY][dR][dA][dY][Lys(N3)]-NH2; triazole 1-7), with 0.025 µM.
With `C[C@H]1NC(=O)[C@@H](Cc2ccccc2)NC(=O)[C@@H](CCCNC(=N)N)NC(=O)[C@@H](Cc2ccccc2)NC(=O)[C@@H](NC(=O)COCCOCCOCCNC(=O)CCCC[C@@H]2SC[C@@H]3NC(=O)N[C@@H]32)Cc2cn(nn2)CCCC[C@@H](C(N)=O)NC(=O)[C@@H](CO)NC1=O` [frfas, Biotin-PEG3-Cy(frfas)] ({Biotin-AEEEA}-[Pra][dF][dR][dF][dA][dS][Lys(N3)]-NH2; triazole 1-7), the “Binding affinity to human IDO1 relative to parent macrocycle or sibling variants (in words)” value under setting [1] is listed as “weakest binding to IDO1”.
Still for that read-out and setting: then `CC(C)C[C@H]1NC(=O)[C@@H](NC(=O)COCCOCCOCCNC(=O)CCCC[C@H]2SC[C@H]3NC(=O)N[C@H]32)Cc2cn(nn2)CCCC[C@@H](C(N)=O)NC(=O)[C@H](Cc2ccc(F)cc2)NC(=O)[C@H](Cc2cn(C)c3ccccc23)NC(=O)[C@@H](Cc2ccccc2)NC1=O` [lf(Me-Trp)(F-Phe), Biotin-PEG3-Cy(lf(Me-Trp)(F-Phe))] ({Biotinyl(3aR,4R,6aS)-AEEEA}-[Pra][dL][dF][Trp(1-Me)][Phe(4-F)][Lys(N3)]-NH2; triazole 1-6), with “slight decrease in binding affinity”.
Consider `NC(=O)[C@@H]1CCCCn2cc(nn2)C[C@H](NC(=O)COCCOCCOCCNC(=O)CCCC[C@@H]2SC[C@@H]3NC(=O)N[C@@H]32)C(=O)N[C@H](CO)C(=O)N[C@H](Cc2c[nH]c3ccccc23)C(=O)N[C@H](Cc2c[nH]c3ccccc23)C(=O)N[C@@H](Cc2ccc(F)cc2)C(=O)N1` [sww(F-Phe), Biotin-PEG3-Cy(sww(F-Phe))] ({Biotin-AEEEA}-[Pra][dS][dW][dW][Phe(4-F)][Lys(N3)]-NH2; triazole 1-6), for which, under setting [1], the “Maximum ELISA signal for human IDO1 binding (in words)” value is “superior to the other 4-mers generated”.
`N=C(N)NCCC[C@H]1NC(=O)[C@@H](Cc2ccc(O)cc2)NC(=O)[C@@H](Cc2c[nH]c3ccccc23)NC(=O)[C@@H](NC(=O)COCCOCCOCCNC(=O)CCCC[C@H]2SC[C@H]3NC(=O)N[C@H]32)Cc2cn(nn2)CCCC[C@@H](C(N)=O)NC(=O)[C@@H](Cc2ccc(O)cc2)NC1=O` [wyry, Biotin-PEG3-Cy(wyry)] ({Biotinyl(3aR,4R,6aS)-AEEEA}-[Pra][dW][dY][dR][dY][Lys(N3)]-NH2; triazole 1-6): the “Binding affinity to human IDO1 relative to parent macrocycle or sibling variants (in words)” value under setting [1] is “best affinity among the 4-mer macrocycles”.
